This is an account of results in patent US10961189B2, “Spiro-lactam NMDA receptor modulators and uses thereof” (Aptinyx Inc., priority 2016, dated 2021).

For one data set, the target named is T1, NMDAR2A (Homo sapiens, UniProt Q12879).
T1 construct: expressed in transfected cells; host or cells: HEK cells (membrane extract)
Briefly: [3H]MK-801 binding in NMDAR expressing HEK cell membranes (facilitation of NMDAR activation). Particulars: 50 μM glutamate; for Emax: 0.25 h, read-out: A: % maximal [3H]MK-801 binding relative to 1 mM glycine; for EC50: read-out: B: log EC50 (converted). It is filed as biochemical. In a few lines:
(§1)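 HEK membranes (300 μg) expressing the NMDAR subunit were preincubated 15 min at 25 °C with 50 μM glutamate and compound ([…]−1×10^−7M), then with 0.3 μCi [3H]MK-801 for 15 min under nonequilibrium conditions and filtered. Baseline-subtracted DPM was expressed as % of 1 mM glycine, and EC50 and % maximal binding came from three-parameter curve fits.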

A further data set has as its target T2, NMDAR2B (Homo sapiens, UniProt Q13224).
T2 construct: expressed in transfected cells; host or cells: HEK cells (membrane extract)
The data set is described as above. It is filed as biochemical. As to conditions: 50 μM glutamate; for EC50: read-out: B: log EC50 (converted); for Emax: 0.25 h, read-out: A: % maximal [3H]MK-801 binding relative to 1 mM glycine. The essentials:
as §1

A further data set is described as follows: IV pharmacokinetics. Type of data set: in vivo, Sprague Dawley rats. As to conditions: rat, normal saline (* in 5% NMP, 5% Solutol HS, 90% normal saline); for Vd: read-out: Vss. An excerpt: The table below summarizes the results of the IV pharmacokinetics.
Data set [1] is described as follows: oral pharmacokinetics (plasma, brain, CSF). It is filed as in vivo, Sprague Dawley rats. As to conditions: rat, per os 10 mg/kg; for AUC(0-t) / bioavailability / Tmax / Cmax: Sprague-Dawley, plasma, po; for Tmax: normal saline (* in 5% NMP, 5% Solutol HS, 90% normal saline), read-out: Tmax; for Cmax: read-out: Cmax.
Procedure: In another experiment, Sprague Dawley rats were dosed per os using a normal saline formulation containing 10 mg/kg of the compounds identified in the table below (except for the compounds marked with an asterisk (“*”) that were delivered in 5% NMP, 5% Solutol® HS and 90% normal saline formulation). Plasma, brain, and CSF samples were analyzed at various time points over a 24 hour period.
The mark [2] stands for this setting: Sprague-Dawley, in vivo, iv, 2 mg/kg.
Where [3] appears, read: Sprague-Dawley, in vivo, iv, 2 mg/kg, read-out: C0.
[4] abbreviates: Sprague-Dawley, in vivo, intravenous 2 mg/kg.

Broadly, the EC50 is the midpoint of the concentration-response curve. As a reminder, the AUC(0-t) is exposure summed from dosing to a finite time, without extrapolation to infinity. As a reminder, the half-life is how long it takes for the measured level to halve. The term bioavailability denotes the share of a dose that reaches the circulation, judged against a reference dose that is usually intravenous. Read a low bioavailability as little systemic uptake. For orientation: Tmax means the time from dosing to the highest level. Broadly, the Cmax is the peak of the concentration-time curve. A word on the Vss: it is a proportionality between amount in the body and measured concentration, not a real space. Higher therefore signals extensive tissue distribution.

Read-outs that look alike come from different tables or passages of the source.

T2 sequence (Q13224 27-1484, species assumed, other chains not shown): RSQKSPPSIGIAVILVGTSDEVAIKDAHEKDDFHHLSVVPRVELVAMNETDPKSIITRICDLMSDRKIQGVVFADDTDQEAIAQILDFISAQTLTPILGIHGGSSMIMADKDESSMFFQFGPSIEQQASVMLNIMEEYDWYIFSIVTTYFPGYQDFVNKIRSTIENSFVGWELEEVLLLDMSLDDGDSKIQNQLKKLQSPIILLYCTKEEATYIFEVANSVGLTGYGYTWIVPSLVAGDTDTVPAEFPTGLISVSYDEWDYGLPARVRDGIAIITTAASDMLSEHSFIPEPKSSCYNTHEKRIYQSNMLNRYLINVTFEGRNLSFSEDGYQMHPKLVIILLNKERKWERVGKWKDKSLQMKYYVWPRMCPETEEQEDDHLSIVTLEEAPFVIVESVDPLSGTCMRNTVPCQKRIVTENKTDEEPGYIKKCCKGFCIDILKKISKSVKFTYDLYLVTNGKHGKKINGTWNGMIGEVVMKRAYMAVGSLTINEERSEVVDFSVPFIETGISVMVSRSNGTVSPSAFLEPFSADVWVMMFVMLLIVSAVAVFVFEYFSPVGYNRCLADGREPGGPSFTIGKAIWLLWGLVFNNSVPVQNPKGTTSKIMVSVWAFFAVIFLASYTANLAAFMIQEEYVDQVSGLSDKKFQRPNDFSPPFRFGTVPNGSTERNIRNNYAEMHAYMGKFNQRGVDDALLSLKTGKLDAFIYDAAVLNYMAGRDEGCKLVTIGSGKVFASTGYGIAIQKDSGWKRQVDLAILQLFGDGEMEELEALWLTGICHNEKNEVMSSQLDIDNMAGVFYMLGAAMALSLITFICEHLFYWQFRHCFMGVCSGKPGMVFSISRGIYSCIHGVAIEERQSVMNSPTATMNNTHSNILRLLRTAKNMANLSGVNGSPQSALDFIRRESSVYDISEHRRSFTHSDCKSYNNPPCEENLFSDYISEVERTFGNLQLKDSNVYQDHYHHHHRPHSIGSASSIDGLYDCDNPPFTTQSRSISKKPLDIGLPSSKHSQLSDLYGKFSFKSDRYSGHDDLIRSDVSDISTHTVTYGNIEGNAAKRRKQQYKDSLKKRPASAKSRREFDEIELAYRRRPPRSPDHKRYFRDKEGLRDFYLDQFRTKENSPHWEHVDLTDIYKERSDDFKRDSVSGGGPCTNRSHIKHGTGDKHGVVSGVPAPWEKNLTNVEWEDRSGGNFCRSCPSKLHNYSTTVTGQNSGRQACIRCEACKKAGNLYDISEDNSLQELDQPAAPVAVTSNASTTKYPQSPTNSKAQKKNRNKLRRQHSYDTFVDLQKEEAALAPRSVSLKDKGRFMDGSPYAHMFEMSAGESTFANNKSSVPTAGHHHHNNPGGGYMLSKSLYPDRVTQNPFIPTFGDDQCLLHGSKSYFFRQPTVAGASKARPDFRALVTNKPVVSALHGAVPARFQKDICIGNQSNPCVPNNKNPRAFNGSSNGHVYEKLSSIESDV
T1 sequence (Q12879 23-1464, species assumed, other chains not shown): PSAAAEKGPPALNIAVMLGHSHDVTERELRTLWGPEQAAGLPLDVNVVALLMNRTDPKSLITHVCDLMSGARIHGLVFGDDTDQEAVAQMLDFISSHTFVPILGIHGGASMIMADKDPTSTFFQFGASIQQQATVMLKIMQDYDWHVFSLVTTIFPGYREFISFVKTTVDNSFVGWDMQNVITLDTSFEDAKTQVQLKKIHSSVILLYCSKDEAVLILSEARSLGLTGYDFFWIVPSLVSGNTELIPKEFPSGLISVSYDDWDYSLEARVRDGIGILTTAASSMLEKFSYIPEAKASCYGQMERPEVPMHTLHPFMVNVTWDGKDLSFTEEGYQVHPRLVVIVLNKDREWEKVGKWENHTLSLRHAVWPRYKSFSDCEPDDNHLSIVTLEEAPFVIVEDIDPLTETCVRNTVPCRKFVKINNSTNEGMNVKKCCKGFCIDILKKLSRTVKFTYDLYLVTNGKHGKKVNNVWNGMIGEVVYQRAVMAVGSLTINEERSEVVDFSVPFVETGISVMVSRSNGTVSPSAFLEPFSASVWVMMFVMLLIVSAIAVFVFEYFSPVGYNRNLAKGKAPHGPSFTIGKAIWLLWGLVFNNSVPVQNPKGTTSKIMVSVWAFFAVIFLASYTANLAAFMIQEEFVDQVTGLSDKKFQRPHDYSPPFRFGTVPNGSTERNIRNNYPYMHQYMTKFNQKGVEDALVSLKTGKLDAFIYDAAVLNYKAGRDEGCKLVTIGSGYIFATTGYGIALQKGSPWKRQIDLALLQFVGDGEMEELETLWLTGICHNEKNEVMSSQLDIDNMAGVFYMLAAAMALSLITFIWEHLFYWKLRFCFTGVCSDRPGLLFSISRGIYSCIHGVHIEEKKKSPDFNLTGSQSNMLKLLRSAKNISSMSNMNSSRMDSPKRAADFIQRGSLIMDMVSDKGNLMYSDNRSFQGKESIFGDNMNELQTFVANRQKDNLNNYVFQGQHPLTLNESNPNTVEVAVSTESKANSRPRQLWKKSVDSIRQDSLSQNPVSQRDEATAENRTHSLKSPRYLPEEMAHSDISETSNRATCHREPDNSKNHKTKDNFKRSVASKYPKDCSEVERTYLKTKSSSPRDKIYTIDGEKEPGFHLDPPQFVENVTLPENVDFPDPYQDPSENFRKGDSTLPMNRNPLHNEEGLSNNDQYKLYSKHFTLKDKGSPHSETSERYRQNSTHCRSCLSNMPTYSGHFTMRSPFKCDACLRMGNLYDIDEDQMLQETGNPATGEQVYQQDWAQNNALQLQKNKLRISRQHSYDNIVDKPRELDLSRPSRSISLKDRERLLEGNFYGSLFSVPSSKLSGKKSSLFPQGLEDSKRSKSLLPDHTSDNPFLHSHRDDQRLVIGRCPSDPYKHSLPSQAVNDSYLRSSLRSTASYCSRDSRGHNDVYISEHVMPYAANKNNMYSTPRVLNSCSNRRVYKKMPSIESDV

For the compound `CC1CCC2(CC1)CNC2=O` (racemic) [Compound AD, 7-methyl-2-azaspiro[3.5]nonan-1-one], at NMDAR2A, the Emax is 0%. Further, at NMDAR2B, the EC50 is ≥ 1 nM and the Emax was < 100%. In the data set “IV pharmacokinetics” (setting [2]), the AUC(0-t) is 1360 ng·h/mL, the half-life is 47.4 min and the Vd turned out to be 0.97 L/kg. Further, the C0 in the data set “IV pharmacokinetics” (setting [3]) was 2060 ng/mL. Also, the CI in the data set “IV pharmacokinetics” (intravenous 2 mg/kg) is reported as 24.57 mL/min/kg. Moreover, in data set [1] (10 mg/kg), the area under the curve AUC(0-t) was determined as 4580 ng·h/mL, the bioavailability was 67%, the Tmax was determined as 25.2 min and the maximum concentration (Cmax) was 2030 ng/mL. Besides, in data set [1], the “CSF Cmax” value was 1009.2 ng/mL and the “Brain Cmax” value worked out at 1832.2 ng/mL.

In the case of `C[C@@H](O)[C@H](NC1CCC2(CC1)CNC2=O)C(N)=O` (single isomer, unassigned) [AP], at NMDAR2A, the concentration for a half-maximal effect (EC50) is < 1 nM and the Emax is < 100%. For the same compound, on NMDAR2B, the EC50 was < 1 nM and the Emax is < 100%. Further, in “IV pharmacokinetics” (intravenous 2 mg/kg, 2 mg/kg), the AUClast was 2941 ng·h/mL, the C0 was determined as 6420.4 ng/mL, the CI is recorded as 11.21 mL/min/kg and the T1/2 was found to be 166 min. The Vss in the data set “IV pharmacokinetics” (intravenous 2 mg/kg, 2 mg/kg) is recorded as 0.92 L/kg. Besides, in data set [1] (10 mg/kg), the AUC(0-t) came out at 2050 ng·h/mL, the bioavailability was 15%, the time to peak (Tmax) is 120 min and the Cmax turned out to be 625 ng/mL. In addition, in data set [1], the “CSF Cmax” value came out at 80.46 ng/mL and the “Brain Cmax” value is recorded as 0 ng/mL.

Consider `O=C1NCC12CCC(OCc1ccccc1)CC2` (single isomer, unassigned) [AI, 7-(benzyloxy)-2-azaspiro[3.5]nonan-1-one], for which, at NMDAR2A, the EC50 was < 1 nM and the Emax was < 100%. For the same compound, at NMDAR2B, the EC50 was < 1 nM and the Emax was < 100%. In addition, in the data set “IV pharmacokinetics” (setting [2]), the AUC(0-t) was 1260 ng·h/mL, the half-life was 82.2 min and the Vd turned out to be 0.75 L/kg. The C0 in the data set “IV pharmacokinetics” (setting [3]) was found to be 4330 ng/mL. The compound further gave a CI in the data set “IV pharmacokinetics” (intravenous 2 mg/kg) of 26.19 mL/min/kg. Also, in data set [1] (10 mg/kg), the AUC(0-t) stood at 5900 ng·h/mL, the bioavailability is 94%, the Tmax was determined as 30 min and the Cmax was determined as 3970 ng/mL. For the same compound, in data set [1], the “CSF Cmax” value was 269.17 ng/mL and the “Brain Cmax” value was determined as 1087.9 ng/mL.

As for `COc1ccc(CN2CC3(CCC(O)CC3)C2=O)cc1` (stereo not shown) [AG], on NMDAR2A, the EC50 was ≥ 1 nM and the Emax was < 100%. Moreover, on NMDAR2B, the 50% effective concentration (EC50) is < 1 nM and the Emax is < 100%. Moreover, in the data set “IV pharmacokinetics” (setting [4]), the AUC(0-t) stood at 650 ng·h/mL, the half-life was 24 min and the Vd amounted to 0.7 L/kg. Also, the C0 in the data set “IV pharmacokinetics” (Sprague-Dawley, in vivo, intravenous 2 mg/kg, read-out: C0) amounted to 2650 ng/mL. The CI in “IV pharmacokinetics” (intravenous 2 mg/kg) is listed as 51.36 mL/min/kg. In data set [1], the bioavailability came to 41%, the Tmax stood at 15 min, the AUC(0-t) turned out to be 1330 ng·h/mL and the maximum concentration (Cmax) amounted to 1930 ng/mL. In addition, in data set [1], the “CSF Cmax” value amounted to 217.3 ng/mL and the “Brain Cmax” value turned out to be 307.49 ng/mL.

Consider `O=C1NCC12CCC(O)CC2` (stereo not shown) [AL, 7-hydroxy-2-azaspiro[3.5]nonan-1-one], for which the “A: % maximal [3H]MK-801 binding relative to 1 mM glycine” value at NMDAR2A is recorded as “− (−=0)”. On NMDAR2B, the “A: % maximal [3H]MK-801 binding relative to 1 mM glycine” value is reported as “+ (<100%=+)” and the EC50 is < 1 nM. Also, in “IV pharmacokinetics” (setting [2]), the AUC(0-t) was 6220 ng·h/mL, the half-life is 224 min and the Vd is 0.83 L/kg. The C0 in the data set “IV pharmacokinetics” (setting [3]) is 3990 ng/mL. For the same compound, the CI in the data set “IV pharmacokinetics” (intravenous 2 mg/kg) amounted to 5.4 mL/min/kg. In addition, in data set [1] (10 mg/kg), the AUC(0-t) amounted to 19300 ng·h/mL, the bioavailability came to 97%, the time of peak concentration (Tmax) turned out to be 60 min and the Cmax was 9480 ng/mL. Further, in data set [1], the “CSF Cmax” value stood at 7532 ng/mL and the “Brain Cmax” value was determined as 3672 ng/mL.
